Article PMC4515429, “Anti-Biofilm and Immunomodulatory Activities of Peptides That Inhibit Biofilms Formed by Pathogens Isolated from Cystic Fibrosis Patients” (Antibiotics, 2014)
In brackets after ≈: the same amount, converted by molar mass. Where two headings read alike, the source gives them in different places. Where a SMILES comes first, the peptide text is derived from it. Bridges are numbered along the chain shown (N, C = ends). Where no end group is shown, it is not given here. [ ]: non-standard residue; d: D form. The star is where a group is joined. X1 = CC[C@H](C)CCCCC(=O)*; Dab = NCC[C@H](N)C(=O)O

Legend:
[1] = test system: P. aeruginosa PA14
Protocol: (§1) In addition to the wild type lab isolates Pseudomonas aeruginosa strains PAO1 and PA14, a variety of cystic fibrosis clinical isolates of P. aeruginosa and Burkholderia cepacia complex strains were utilized (Table 1). Planktonic cells from each of the P. aeruginosa and B. cepacia strains were grown in BM2 glucose or cation-adjusted Mueller-Hinton. The minimal inhibitory concentration (MIC) for peptides in brain-heart infusion (BHI) was assessed by the broth microdilution method with minor modifications for cationic peptides. […] MIC assays were performed in sterile 96-well polypropylene microtiter plates. […] The plates were incubated at 37 °C for 18 h.

[2] = test system: P. aeruginosa PA14; assay: Anti-biofilm activity, BioFlux apparatus; format: cell-based, Pseudomonas aeruginosa; conditions: 15 µg/mL peptide
[3] = test system: B. cenocepacia 4813; assay: Anti-biofilm activity of 1018 derivatives (Table 4); format: cell-based, Burkholderia cenocepacia; conditions: 15 µg/mL peptide
Protocol: Biofilm formation was initially analyzed using a static abiotic solid surface assay as described elsewhere [21]. Dilutions (1/100) of overnight cultures were incubated in BM2 glucose medium (62 mM potassium phosphate buffer (pH 7), 7 mM (NH4)2SO4, 2 mM MgSO4, 10 μM FeSO4, 0.4% (wt/vol) glucose, 0.5% (wt/vol) Casamino Acids) in polypropylene microtiter plates (Fisher Scientific, Waltham, MA, USA) in the presence of the different peptides for 22 h at 37 °C. Planktonic cells were removed and biofilm cells adhering to the side of the tubes were stained with crystal violet, extracted into ethanol, and the optical density at 595 nm (OD595) measured using a microtiter plate reader (Bio-Tek Instruments Inc., Winooski, VT, USA). Peptides were added at time zero (prior to adding the diluted, overnight cultures) at various concentrations, and the decrease in biofilm formation was recorded at 22 h for P. aeruginosa, Burkholderia and Methicillin-resistant Staphylococcus aureus isolates.

[4] = test system: planktonic cells of Burkholderia strains
Protocol: as §1

[5] = test system: P. aeruginosa 3330 (Classic)
Protocol: as §1

[6] = test system: B. stabilis C6061 (IV); conditions: 18 h
Protocol: as §1

[7] = test system: B. cenocepacia C5424 (IIIa); conditions: 18 h
Protocol: as §1

[8] = test system: B. cenocepacia CEP509 (IIIb); conditions: 18 h
Protocol: as §1

[9] = test system: P. aeruginosa 7633 (Entire)
Protocol: as §1

[10] = test system: B. multivorans D2661 (Genomovar II); conditions: 18 h
Protocol: as §1

[11] = test system: B. cenocepacia 4813 (IIIa); conditions: 18 h
Protocol: as §1

[12] = test system: P. aeruginosa 1172 (Classic)
Protocol: as §1

[13] = test system: P. aeruginosa 2639 (Mucoid)
Protocol: as §1

[14] = test system: P. aeruginosa 2631 (Classic)
Protocol: as §1

[15] = test system: P. aeruginosa 7632 (Classic)
Protocol: as §1

[16] = test system: P. aeruginosa PA01; conditions: 18 h
Protocol: as §1

[17] = test system: P. aeruginosa C4276 (Classic)
Protocol: as §1

[18] = test system: P. aeruginosa C2773 (Classic)
Protocol: as §1

[19] = test system: P. aeruginosa 3195 (Classic)
Protocol: as §1

[20] = test system: B. dolosa CEP0021 (VI); conditions: 18 h
Protocol: as §1

[21] = test system: B. cenocepacia CEP0055 (IIIb); conditions: 18 h
Protocol: as §1

[22] = test system: P. aeruginosa C4278 (Mucoid)
Protocol: as §1

[23] = test system: B. ambifaria CEP0996 (VII); conditions: 18 h
Protocol: as §1

[24] = test system: P. aeruginosa 4608 (Mucoid)
Protocol: as §1

[25] = test system: P. aeruginosa 4020 (Classic)
Protocol: as §1

[26] = test system: P. aeruginosa; conditions: at one sixteenth the minimum inhibitory concentration (MIC); cited from earlier work
Description: Cationic host defense (antimicrobial) peptides represent a novel alternative to conventional antibiotics. […] Similar results were subsequently shown by other groups. This encouraged t ...

[27] = test system: monocyte chemotactic protein-1 (MCP-1) production by human peripheral blood mononuclear cells; assay: MCP-1 induction in PBMCs, sandwich ELISA; format: cell-based; conditions: 24 h; for level of MCP-1 induction at 100 µg/mL: 100 µg/mL peptide; for MCP-1 induction: 20 and 100 µg/mL peptide, cf. untreated control
Protocol: (§2) (A) Human peripheral blood mononuclear cells were subjected to 20 µg/mL and 100 µg/mL of HE1, HE4, HE10, HE12, and 1018 for 24 h. Monocyte chemotactic protein-1 (MCP-1) production was assessed using sandwich enzyme linked immunosorbent assay (ELISA). The level of MCP-1 induction was similar for HE1, HE4, HE10, and 1018 at 100 µg/mL; (B) LPS (20 ng/mL) was co-administered with 20 µg/mL of each of the aforementioned peptides for 24 h. The tumor necrosis factor-alpha (TNF-α) production in response to both stimulants was assessed using enzyme linked immunosorbent assay (ELISA) and compared to lipopolysaccharides (LPS) alone. […] Lactate dehydrogenase release from peripheral blood mononuclear cells (PBMCs) was measured to assess the toxicity of 20 µg/mL and 100 µg/mL of 1018 and its derivatives.
These studies were done as described previously. Briefly, human peripheral blood mononuclear cells (PBMCs) were isolated from the blood of healthy individuals obtained under University of British Columbia (UBC) human ethics approval. PBMCs were diluted to 2 × 10^6 cells/ml in RPMI-1640 medium (Gibco®, Grand Island, NY, USA) supplemented with 10% fetal bovine serum (FBS). Subsequently, 250 µL of cells were seeded in each well of a 48-well dish. […] To assess chemokine induction after 24 h, the levels of chemokine MCP-1 (CCL2) were assessed in the supernatants three times independently using a sandwich ELISA kit (BioSource International, Grand Island, NY, USA). To look at the anti-inflammatory activity of the peptides in suppressing LPS-induced TNFα, P. aeruginosa LPS was added at a final concentration of 20 ng/mL as well as peptides at 20 μg/mL or 100 μg/mL. Secretion of TNF-α was monitored by capture ELISA (eBiosciences, San Diego, CA, USA) after 24 h.

[28] = test system: P. aeruginosa PA14; assay: Flow cell biofilm assay, confocal microscopy; format: cell-based, Pseudomonas aeruginosa; conditions: 72 h, 37 °C, inhibition and eradication conditions, Syto-9/PI confocal imaging
Protocol: For biofilm prevention conditions, the peptides were added to the medium from the beginning of the experiment. For eradication experiments, bacteria were allowed to develop structured 2-day-old biofilms prior to peptide and antibiotics treatment for the following 24 h.
Biofilms were grown for 72 h, in the absence or presence of the desired concentration of the different peptides, at 37 °C in flow chambers with channel dimensions of 1 by 4 by 40 mm, and then stained and examined by confocal microscopy, as described previously. For biofilm prevention studies the peptide was present in the flow-through medium throughout the biofilm growth while for eradication experiments, biofilms were allowed to grow for 2 days, before treating them with peptide for the last 24 h of the experiment.

[29] = test system: methicillin resistant Staphylococcus aureus (MRSA); assay: Biofilm inhibition in 96-well plates, static conditions; format: cell-based; conditions: polypropylene microtiter plates, BM2, 24 h, 37 °C, crystal violet, absorbance 595 nm
Protocol: Figure 3 Biofilm inhibitory activity against methicillin resistant Staphylococcus aureus (MRSA) in 96-well plates. […] Statistical significance was assessed using one-way ANOVA (*, p < 0.05; ***, p < 0.001; ****, p < 0.0001).

[30] = test system: TNF-α production by human peripheral blood mononuclear cells; assay: LPS-induced TNF-α production in PBMCs, ELISA; format: cell-based; conditions: LPS-stimulated PBMCs, Figure 4B
Protocol: as §2
These studies were done as described previously. Briefly, human peripheral blood mononuclear cells (PBMCs) were isolated from the blood of healthy individuals obtained under University of British Columbia (UBC) human ethics approval. […] To assess chemokine induction after 24 h, the levels of chemokine MCP-1 (CCL2) were assessed in the supernatants three times independently using a sandwich ELISA kit (BioSource International, Grand Island, NY, USA). […] Secretion of TNF-α was monitored by capture ELISA (eBiosciences, San Diego, CA, USA) after 24 h.

[31] = planktonic cells, broth microdilution, BHI, 5 × 10^5 CFU/mL, 37 °C, 18 h, performed at least three times
[32] = planktonic cells, broth microdilution, BHI, 5 × 10^5 CFU/mL, 37 °C, performed at least three times

## VRLIWAVRIWRR [HE4]
[1]; PA14, 18 h
  MIC: 80 µg/mL

## VRLIRAVRAWRV [HE2, 1018 derivative, break hydrophobicity; maintain charge]
[2]
  Anti-Biofilm Activity (% Decrease in Biofilm): 42%
[3]
  Anti-Biofilm Activity (% Decrease in Biofilm): 24%

## KRWWKWWRR-NH2 (C-terminus assumed) [HHC-36]
[4]
  MIC against planktonic cells of Burkholderia strains: > 256 µg/mL

## CC[C@H](C)CCCCC(=O)N[C@@H](CCN)C(=O)N[C@H](C(=O)N[C@@H](CCN)C(=O)N[C@H]1CCNC(=O)[C@H]([C@@H](C)O)NC(=O)[C@H](CCN)NC(=O)[C@H](CCN)NC(=O)[C@H](CC(C)C)NC(=O)[C@@H](Cc2ccccc2)NC(=O)[C@H](CCN)NC1=O)[C@@H](C)O [Polymyxin B] (X1-[Dab]T[Dab][Dab][Dab][dF]L[Dab][Dab]T; lactam 4-C (inferred); N-terminus assumed)
[5]; 3330 (Classic, 18 h)
  MIC: 2 µg/mL (≈ 1.66 µM)
[6]
  MIC: >128 µg/mL
[7]
  MIC: >128 µg/mL
[8]
  MIC: >128 µg/mL
[9]; 7633 (Entire, 18 h)
  MIC: 2 µg/mL (≈ 1.66 µM)
[10]
  MIC: >128 µg/mL
[11]
  MIC: >128 µg/mL
[12]; 1172 (Classic, 18 h)
  MIC: 2 µg/mL (≈ 1.66 µM)
[13]; 2639 (Mucoid, 18 h)
  MIC: 2 µg/mL (≈ 1.66 µM)
[14]; 2631 (Classic, 18 h)
  MIC: 4 µg/mL (≈ 3.32 µM)
[15]; 7632 (Classic, 18 h)
  MIC: 2 µg/mL (≈ 1.66 µM)
[16]
  MIC: 2 µg/mL (≈ 1.66 µM)
[17]; C4276 (Classic, 18 h)
  MIC: 2 µg/mL (≈ 1.66 µM)
[18]; C2773 (Classic, 18 h)
  MIC: 4 µg/mL (≈ 3.32 µM)
[19]; 3195 (Classic, 18 h)
  MIC: 2 µg/mL (≈ 1.66 µM)
[20]
  MIC: >128 µg/mL
[21]
  MIC: >128 µg/mL
[1]; PA14, 18 h
  MIC: 2 µg/mL (≈ 1.66 µM)
[22]; C4278 (Mucoid, 18 h)
  MIC: 2 µg/mL (≈ 1.66 µM)
[23]
  MIC: >128 µg/mL
[24]; 4608 (Mucoid, 18 h)
  MIC: 2 µg/mL (≈ 1.66 µM)
[25]; 4020 (Classic, 18 h)
  MIC: 2 µg/mL (≈ 1.66 µM)

## RFKRVARVIW [HE12]
[1]; PA14, 18 h
  MIC: 80 µg/mL

## VRWARVARILRV [HE3, 1018 derivative, reverse of HE2]
[2]
  Anti-Biofilm Activity (% Decrease in Biofilm): 31%
[3]
  Anti-Biofilm Activity (% Decrease in Biofilm): 21%

## CC[C@H](C)[C@H](NC(=O)[C@H](CCCCN)NC(=O)[C@H](CCC(=O)O)NC(=O)[C@H](CCCCN)NC(=O)[C@H](CO)NC(=O)[C@H](CCCCN)NC(=O)[C@H](CCCNC(=N)N)NC(=O)[C@H](Cc1ccccc1)NC(=O)[C@H](Cc1ccccc1)NC(=O)[C@H](CC(=O)O)NC(=O)CNC(=O)[C@H](CC(C)C)NC(=O)[C@@H](N)CC(C)C)C(=O)NCC(=O)N[C@@H](CCCCN)C(=O)N[C@@H](CCC(=O)O)C(=O)N[C@@H](Cc1ccccc1)C(=O)N[C@@H](CCCCN)C(=O)N[C@@H](CCCNC(=N)N)C(=O)N[C@H](C(=O)N[C@H](C(=O)N[C@@H](CCC(N)=O)C(=O)N[C@@H](CCCNC(=N)N)C(=O)N[C@H](C(=O)N[C@@H](CCCCN)C(=O)N[C@@H](CC(=O)O)C(=O)N[C@@H](Cc1ccccc1)C(=O)N[C@@H](CC(C)C)C(=O)N[C@@H](CCCNC(=N)N)C(=O)N[C@@H](CC(N)=O)C(=O)N[C@@H](CC(C)C)C(=O)N[C@H](C(=O)N1CCC[C@H]1C(=O)N[C@@H](CCCNC(=N)N)C(=O)N[C@H](C(=O)N[C@@H](CCC(=O)O)C(=O)N[C@@H](CO)C(=O)O)[C@@H](C)O)C(C)C)[C@@H](C)CC)C(C)C)[C@@H](C)CC [LL-37]
[26]
  decrease in biofilm formation: 50%
[5]; [31]
  MIC: >128 µg/mL
[6]; [32]
  MIC: >512 µg/mL
[7]; [32]
  MIC: >256 µg/mL
[8]; [32]
  MIC: >512 µg/mL
[9]; [31]
  MIC: >128 µg/mL
[10]; [32]
  MIC: >512 µg/mL
[11]; [32]
  MIC: >256 µg/mL
[12]; [31]
  MIC: >128 µg/mL
[13]; [31]
  MIC: >128 µg/mL
[14]; [31]
  MIC: >256 µg/mL
[15]; [31]
  MIC: 256 µg/mL (≈ 57 µM)
[16]; [32]
  MIC: 32 µg/mL (≈ 7.12 µM)
[17]; [31]
  MIC: 256 µg/mL (≈ 57 µM)
[18]; [31]
  MIC: 256 µg/mL (≈ 57 µM)
[19]; [31]
  MIC: 64 µg/mL (≈ 14.2 µM)
[20]; [32]
  MIC: >512 µg/mL
[21]; [32]
  MIC: >512 µg/mL
[1]; [31]
  MIC: 32 µg/mL (≈ 7.12 µM)
[22]; [31]
  MIC: >256 µg/mL
[23]; [32]
  MIC: >512 µg/mL
[24]; [31]
  MIC: >128 µg/mL
[25]; [31]
  MIC: >128 µg/mL

## RRWIRVAVILRV [HE1]
[27]
  level of MCP-1 induction at 100 µg/mL: similar
  MCP-1 induction: significantly induced MCP-1
[2]
  Anti-Biofilm Activity (% Decrease in Biofilm): 93%

## VRLI--VRIWRR [HE10, 1018 derivative, truncated to remove hydrophobic patch]
[27]
  level of MCP-1 induction at 100 µg/mL: similar
  MCP-1 induction: significantly induced MCP-1
[28]
  anti-biofilm activity in flow cells: strong anti-biofilm activity comparable with that of 1018
[29]
  biofilm inhibitory activity against MRSA compared to 1018: notably more active
[30]
  suppression of TNF-α production: strongly suppressing the production of TNF-α

## KRWWKWIRW-NH2 (C-terminus assumed) [HHC-10]
[4]
  MIC against planktonic cells of Burkholderia strains: > 256 µg/mL
